Patent US20020173640A1, “ADAM polynucleotides, polypeptides, and antibodies” (Human Genome Sciences, Inc., priority 1999, published 2002)

Columns and labels:
[1] = tested on: protease inhibitor-resistant viruses; details: cited from earlier work
[2] = tested on: human metastatic melanoma (M24 cells); details: cited from earlier work
M24 cells = details: murine metastasis model; cited from earlier work
[3] = tested on: lamivudine-resistant isolates; details: cited from earlier work
[4] = tested on: alpha-2-macroglobulin (α2-M); assay: Cleavage of α2-M by hADAM-19; format: biochemical, Bovine; details: 37° C.; new bands of 105 kDa and 72 kDa; dose-dependent
Experimental: The time course of hydrolysis of α2-M by hADAM-19 was examined. Ten μl of purified hADAM-19 (50 μg/ml) were mixed with 23.8 μl α2-M (0.2 unit)ml) in 66.24 μl 1× assay buffer (50 mM HEPES, pH 7.5, 0.2 M NaCl, 10 mM CaCl2, 25 μM ZnCl2 and 0.05% Brij-35) and incubated at 37° C. for 1-5 days. Trypsin was used as a positive control. The molar ratios between α2-M and hADAM-19 or trypsin were from 1:1 to 5:1. The samples were collected and boiled in SDS-PAGE sample buffer containing 5% 2-mercaptoethanol for 5-min, then loaded onto an 8% SDS-polyacrylamide gel. After electrophoresis the proteins were visualized by silver staining method.

[5] = tested on: alpha-2-macroglobulin (α2-M); assay: Complex formation between hADAM-19 and α2-M (Western blot, anti-Flag); format: binding, Bovine; details: 37° C. for 16 h; Western blot with anti-Flag Ab
Experimental: Complex Formation Between hADAM-19 and α2-M Human ADAM-19 transient transfected supernatant was concentrated by about 10-fold in a 0.4 ml Ultrafree MC filter unit (Low Binding Regenerated Cellulose membrane, MW cutoff 10 kDa) from Millipore. 40 μl of the concentrated sample were mixed with TBSZ buffer (50 mM Tris.HCl, 150 mM NaCl, 5 μM ZnCl2) with or without α2-M protein (Roche Molecular Biochemicals, final concentration, 1 unit/ml) in a total 50 μl reaction volume and incubated at 37° C. for 16 h. The samples were boiled in Lamini sample buffer and loaded on a 4-12% percent Tris-Giycine gel. In the case of purified hADAM-19 protein, one to 10 μl of purified protein were incubated with α2-M protein in TBSZ buffer in a total of 50 μl reaction volume and incubated at 37° C. for 16 h. Anti-Flag M2 antibody (Ab), at 1 μg/ml concentration (Sigma), was used as primary Ab. Peroxidase-labelled goat anti-mouse Ab from Amersham Pharmacia Biotech was used as secondary Ab at 1:2000 dilution.

bovine casein = assay: Substrate specificity: casein; format: biochemical
Experimental: (§1) The following assay(s) are useful in determining the presence of protease activity. Gelatin and casein zymography are performed essentially as described (Heusen et al., Anal. Biochem., 102:196-202 (1980); Wilson et al., Journal of Urology, 149:653-658 (1993)). Samples are run on 10% polyacryamide/0.1% SDS gels containing 1% gelain orcasein, soaked in 2.5% triton at room temperature for 1 hour, and in 0.1M glycine, pH 8.3 at 37° C. 5 to 16 hours. After staining in amido black areas of proteolysis apear as clear areas agains the blue-black background. Trypsin (Sigma T8642) is used as a positive control.

[6] = tested on: rat tail tendon type I gelatin; assay: Substrate specificity: gelatin; format: biochemical
Experimental: as §1

alpha-2 macroglobulin = assay: metal-dependant proteolysis of alpha-2 macroglobulin; format: biochemical; details: see Example 19

## Cc1ccccc1CNC(=O)[C@H]1N(C(=O)[C@@H](O)[C@H](Cc2ccccc2)NC(=O)c2cccc(O)c2C)CSC1(C)C [AG-1776]
[1]
  in vitro activity against protease inhibitor-resistant viruses: in vitro activity against protease inhibitor-resistant viruses

## contortrostatin
[2]
  inhibition of M24 cell adhesion to laminin: not laminin
  inhibition of M24 cell adhesion to type I collagen, vitronectin, and fibronection: inhibit
M24 cells
  inhibition of lung colonization of M24 cells: inhibits lung colonization

## Nc1ccn([C@H]2CO[C@@H](CO)S2)c(=O)n1 [dOTC]
[3]
  activity against lamivudine-resistant isolates: retains activity against a substantial proportion of lamivudine-resistant isolates

B1: hADAM-19: Flag-tagged hADAM-19 protein (residues 26-701 of SEQ ID NO: 9) purified from transfected 293T cells (protein, listed as Homo sapiens)
chain: REPGWTRGSEEGSPKLQHELIIPQWKTSESPVREKHPLKAELRVMAEGRELILDLEKNEQLFAPSYTETHYTSSGNPQTTTRKLEDHCFYHGTVRETELSSVTLSTCRGIRGLITVSSNLSYVIEPLPDSKGQHLIYRSEHLKPPPGNCGFEHSKPTTRDWALQFTQQTKKRPRRMKREDLNSMKYVELYLVADYLEFQKNRRDQDATKHKLIEIANYVDKFYRSLNIRIALVGLEVWTHGNMCEVSENPYSTLWSFLSWRRKLLAQKYHDNAQLITGMSFHGTTIGLAPLMAMCSVYQSGGVNMDHSENAIGVAATMAHEMGHNFGMTHDSADCCSASAADGGCIMAAATGHPFPKVFNGCNRRELDRYLQSGGGMCLSNMPDTRMLYGGRRCGNGYLEDGEECDCGEEEECNNPCCNASNCTLRPGAECAHGSCCHQCKLLAPGTLCREQARQCDLPEFCTGKSPHCPTNFYQMDGTPCEGGQAYCYNGMCLTYQEQCQQLWGPGARPAPDLCFEKVNVAGDTFGNCGKDMNGEHRKCNMRDAKCGKIQCQSSEARPLESNAVPIDTTIIMNGRQIQCRGTHVYRGPEEEGDMLDPGLVMTGTKCGYNHICFEGQCRNTSFFETEGCGKKCNGHGVCNNNQNCHCLPGWAPPFCNTPGHGGSIDSGPMPPESVG
modifications: Flag tag
[4]
  cleavage of α2-M: cleaved α2-M
[5]
  complex formation with α2-M: formed a complex of 170 kDa band with α2-M
Bovine casein
  dissolution of bovine casein: not dissolved
[6]
  dissolution of rat tail tendon type I gelatin: not dissolved

B2: Gene NO: 1: human ADAM polypeptide encoded by cDNA clone HDPDH32, homologous to murine metalloproteinase-disintegrin meltrin beta (protein, listed as Homo sapiens)
chain: MPGGAGAARLCLLAFALQPLRPRAAREPGWTRGSEEGSPKLQHELIIPQWKTSESPVREKHPLKAELRVMAEGRELILDLEKNEQLFAPSYTETHYTSSGNPQTTTRKLEDHCFYHGTVRETELSSVTLSTCRGIRGLITVSSNLSYVIEPLPDSKGQHLIYRSEHLKPPPGNCGFEHSKPTTRDWALQFTQQTKKRPRRMKREDLNSMKYVELYLVADYLEFQKNRRDQDATKHKLIEIANYVDKFYRSLNIRIALVGLEVWTHGNMCEVSENPYSTLWSFLSWRRKLLAQKYHDNAQLITGMSFHGTTIGLAPLMAMCSVYQSGGVNMDHSENAIGVAATMAHEMGHNFGMTHDSADCCSASAADGGCIMAAATGHPFPKVFNGCNRRELDRYLQSGGGMCLSNMPDTRMLYGGRRCGNGYLEDGEECDCGEEEECNNPCCNASNCTLRPGAECAHGSCCHQCKLLAPGTLCREQARQCDLPEFCTGKSPHCPTNFYQMDGTPCEGGQAYCYNGMCLTYQEQCQQLWGPGARPAPDLCFEKVNVAGDTFGNCGKDMNGEHRKCNMRDAKCGKIQCQSSEARPLESNAVPIDTTIIMNGRQIQCRGTHVYRGPEEEGDMLDPGLVMTGTKCGYNHICFEGQCRNTSFFETEGCGKKCNGHGVCNNNQNCHCLPGWAPPFCNTPGHGGSIDSGPMPPESVGPVVAGVLVAILVLAVLMLMYYCCRQNNKLGQLKPSALPSKLRQQFSCPFRVSQNSGTGHANPTFKLQTPQGKRKVINTPEILRKPSQPPPRPPPDYLRGGSPPAPLPAHLSRAARNSPGPGSQIERTESSRRPPPSRPIPPAPNCIVSQDFSRPRPPQKALPANPVPGRRSLPRPGGASPLRPPGAGPQQSRPLAALAPKFPEYRSQRAGGMISSKI
alpha-2 macroglobulin
  metal-dependant proteolysis of alpha-2 macroglobulin: displayed metal-dependant proteolysis of alpha-2 macroglobulin
